# Source: article PMC12040169 (PLOS Biology, 2025)
# Experiment: in vitro
# Details: human, hela cells
row,SMILES,"viability at 28.5 h, 10 µM"
1,C=CCSc1nnc(OC(=O)N(C)C)n1-c1ccc(Cl)cc1 [CBK004817],90.8%

# Same assay, conditions: human, hela cells, % viability
row,SMILES,"viability at 28.5 h, 10 µM"
1,O=S(=O)(Nc1cccc(C(F)(F)F)c1)c1ccc(N2CCCNCC2)c2ccccc12 [CBK003929C],86.4%
2,O=S(=O)(Nc1ccccc1OC(F)(F)F)c1ccc(N2CCNCC2)c2ccccc12 [CBK003933C],92.8%
3,O=S(=O)(Nc1cccc(OC(F)(F)F)c1)c1ccc(N2CCNCC2)c2ccccc12 [CBK003935C],111%
4,FC(F)(F)c1ccc(N2CCNCC2)nc1SCc1ccccc1Cl [CBK003964A],98.2%
5,FC(F)(F)c1ccc(N2CCNCC2)nc1OCc1ccc2c(c1)OCCO2 [CBK003994A],113%
6,O=C(Nc1cc(N2CCNCC2)ncn1)c1ccccc1 [CBK004215T],94.3%
7,COc1ccc(CCC(=O)Nc2cc(N3CCNCC3)ncn2)cc1 [CBK004231T],92.1%
8,O=C(Nc1ccccn1)C1CCCN1c1nc(O)cc(C(F)(F)F)n1 (stereo not drawn) [CBK004254],91%
9,CCNC(=S)N[C@H]1CC[C@@]2(Cc3ccc(OC)cc3)CCN(C)[C@H]2C1 [CBK004257],101%
10,CCCCNC(=S)N[C@H]1CC[C@@]2(Cc3ccc(OC)cc3)CCN(C)[C@H]2C1 [CBK004258],108%
11,COc1ccc(C[C@@]23CC[C@@H](NC(=S)NCc4ccccc4)C[C@@H]2N(C)CC3)cc1 [CBK004262],88.4%
12,O=C(NCc1cccs1)C1CCCN1c1nc(O)cc(C(F)(F)F)n1 (stereo not drawn) [CBK004299],91.3%
13,O=C(Nc1nccc(N2CCNCC2)n1)C1CCCC1 [CBK004302T],113%
14,O=C(Nc1ccccc1F)C1CCCN1c1nc(O)cc(C(F)(F)F)n1 (stereo not drawn) [CBK004307],105%
15,CCN(CC)CCOC(=O)c1ccc(N)cc1 [CBK004330C],84.5%
16,COC(=O)c1sccc1NS(=O)(=O)c1ccc2ccccc2c1 [CBK004500],103%
17,Brc1ccccc1OCCc1ccccc1 [CBK004519],95.4%
18,COc1ccc(C2OCCN2C(C)=O)cc1 (stereo not drawn) [CBK004536],80.8%
19,Cc1c(Cl)cccc1S(=O)(=O)Nc1ccsc1C(=O)O [CBK004549],97.7%
20,O=C(O)c1sccc1NS(=O)(=O)Cc1ccccc1 [CBK004561],92.3%
21,O=C(Nc1ccc(F)cc1)c1sccc1NS(=O)(=O)Cc1ccccc1 [CBK004574],106%
22,O=C(Nc1ccc(F)cc1)c1sccc1NS(=O)(=O)c1cc(F)c(Br)cc1F [CBK004586],94.4%
23,COc1ccc(Br)cc1S(=O)(=O)Nc1ccsc1C(=O)Nc1ccc(F)cc1 [CBK004593],97.7%
24,CCN(CC)C(=O)c1sccc1NS(=O)(=O)c1ccc(OC)c(OC)c1 [CBK004596],94.3%

row,SMILES,"viability at 28.5 h, 10 µM"
1,CCN(CC)C(=O)c1sccc1NS(=O)(=O)c1cc(Br)c(Cl)s1 [CBK004599],98.3%
2,Cc1noc(C)c1S(=O)(=O)Nc1ccsc1C(=O)Nc1ccc(F)cc1 [CBK004604],86.3%
3,COc1ccc(S(=O)(=O)Nc2ccsc2C(=O)N2CCN(C)CC2)cc1OC [CBK004627],95.3%
4,CN1CCN(C(=O)c2sccc2NS(=O)(=O)c2ccc3ccccc3c2)CC1 [CBK004631],91.7%
5,CCNC(=S)N[C@@H]1CC[C@@]2(c3ccc([N+](=O)[O-])cc3)CCN(CCc3ccccc3)[C@H]2C1 [CBK004677],90.5%
6,OCc1cccc2c3c(n(Cc4ccccc4)c12)CCCC3 [CBK004693],91.3%
7,CCOC(=O)CNS(=O)(=O)c1cccc(Cl)c1C [CBK004702],103%
8,CCOC(=O)c1cnc(NS(=O)(=O)c2cccc(Cl)c2C)nc1C [CBK004707],105%
9,O=C(Nc1ccc(N2CCNCC2)nc1)C1CCC1 [CBK004743T],86.2%
10,COCCC(=O)Nc1ccc(N2CCNCC2)nc1 [CBK004749T],92.2%
11,CC(C(=O)Nc1cccc(N2CCNCC2)c1)c1ccccc1 (stereo not drawn) [CBK004770T],95.6%
12,CN1CCN(c2nc(Nc3ccc(Cl)cc3)nc(Oc3ccccc3)n2)CC1 [CBK004778],107%
13,Cc1ccc2[nH]c3c(c2c1)CCNCC3 [CBK004811],98.3%
14,Cc1cc(=O)oc(-c2ccccc2)c1C#N [CBK004842],95%
15,CC1CN(C(=O)Nc2ccccc2F)CC(C)O1 (stereo not drawn) [CBK004990],89.9%
16,CCCCNc1ncncc1-c1ccc(Br)cc1 [CBK005014C],88.6%
17,O=C(CCN1CCOCC1)N/N=C\c1cccs1 [CBK005035],90.6%
18,CCCCc1ccc(C(N)=O)nc1C(N)=O [CBK005061],88.8%
19,CNC1CCCCCC1(O)c1ccccc1 (stereo not drawn) [CBK005073],99.2%
20,COC(=O)c1nn(C(=O)N(C)C)c(C)c1Br [CBK005077],88.5%
21,O=C1NC(=O)C2(CCN(Cc3ccccc3)CC2)N1 [CBK005078],86.8%
22,O=C(c1ccccc1Cl)c1cc(Cl)ccc1-n1ccnc1 [CBK005151],95.2%
23,CCN(CC)C(=O)C1CCCN(C(=O)Nc2cccc(OC)c2)C1 (stereo not drawn) [CBK005159],92.9%
24,CCSc1cc(Nc2nc(Cl)cc(SCC)n2)nc(N)n1 [CBK005164],92.6%

row,SMILES,"viability at 28.5 h, 10 µM"
1,CS(=O)(=O)N1CC2(CCNCC2)c2ccccc21 [CBK005171],94.4%
2,Cc1cn(S(=O)(=O)N(C)C)nc1-c1ccccc1 [CBK005210],89.9%
3,Clc1ccc(Nc2nnns2)cc1Cl [CBK005211],100%
4,O[C@H]1CCC[C@@H]1NCc1ccc(Cl)c(Cl)c1 [CBK005217],87%
5,CN(C)C(=O)[C@@]1(O)CCC2(c3ccc(Cl)cc3)CCCN(C)C2C1 (stereo partly drawn) [CBK005234],92.8%
6,CC(=O)Oc1ccc(N2C(=O)CCSC2=S)cc1 [CBK005283],89.4%
7,COC(=O)c1ccc(CC(C)C)nc1SC1=NCCCN1 [CBK005294C],94.1%
8,CC[C@@H]1C(=O)OC[C@@H]1Cc1cncn1C [CBK005338C],85.3%
9,COc1ccc(CCN[C@H]2CCC[C@@H]2O)cc1OC [CBK005354G],78.4%
10,CC1(C)OCc2nc(C(O)C(C)(C)C)ccc2O1 (stereo not drawn) [CBK005386],98.4%
11,Cc1ccc(CNc2cc(C)ccn2)cc1 [CBK005419],106%
12,COC(C(=O)N(C)C)C(OC)C(=O)N(C)C (stereo not drawn) [CBK005447],111%
13,CS(=O)(=O)c1sc(C(=O)O)c2c1C=CCC2 [CBK005513],87.3%
14,CC1(C)CC(=O)C=C(SCC(=O)C(C)(C)C)S1 [CBK005523],106%
15,CCOC(=O)CS(=O)(=O)Cc1cc(Cl)nc(Cl)c1 [CBK005544],109%
16,O=C(NC(=O)N1CCOCC1)c1csnn1 [CBK005561],86.4%
17,Nc1c(C(F)(F)F)cc(Cl)nc1Cl [CBK005620],95.7%
18,C#CCOc1cccc2oc(CCC)cc(=O)c12 [CBK005628],87.6%
19,CCOC(=O)c1sc(Sc2nnc(C(F)(F)F)n2C)c2c1CC(C)(C)CC2=O [CBK005649],101%
20,CS(=O)(=O)c1sc(C(=O)NC(=S)Nc2cccc(C(F)(F)F)c2)c2c1C=CCC2 [CBK005654],96.9%
21,C[S+]([O-])c1sc(Cl)c2c1C(=O)CCC2 (stereo not drawn) [CBK005657],104%
22,CC(=O)c1ccc2c3c(cccc13)CC(N(C)C)C2 (stereo not drawn) [CBK005691S],95.8%
23,O=S(=O)(NCCCN1CCOCC1)c1cc(C(F)(F)F)cc(C(F)(F)F)c1 [CBK005796],91%
24,CC(C)(C)c1nc(COc2ccc3nonc3c2)no1 [CBK005831],91.8%

row,SMILES,"viability at 28.5 h, 10 µM"
1,S=c1nc[nH]cc1-c1ccc(Br)cc1 [CBK005833],87.6%
2,COC(=O)CCCCCSc1nc2ccc(O)c([N+](=O)[O-])c2s1 [CBK005867],106%
3,CCOc1ccc2nc(SCCN3CCOCC3)sc2c1 [CBK005888],89.6%
4,Nc1nccc(-c2cc(OCC(F)(F)F)ccc2OCC(F)(F)F)n1 [CBK005948],94.6%
5,O=C(Nc1nccc(-c2cc(OCC(F)(F)F)ccc2OCC(F)(F)F)n1)c1cccs1 [CBK005949],95.5%
6,Cc1c(C#N)sc(-c2nc[nH]n2)c1C [CBK005952],77.6%
7,CSc1sc(C(=O)CC#N)c2c1C=CCC2 [CBK006004],91%
8,Nc1cc(O)n(Cc2ccco2)c(=S)n1 [CBK006010],99.9%
9,CCOC(=O)c1cc2c(CNc3ccc(OC)nc3)cccc2o1 [CBK006086],91.7%
10,O=C(c1cccs1)n1ccc(-c2ccc3c(c2)CCO3)n1 [CBK006090],97.6%
11,CC1(C)C=Cc2cc(/C(N)=N/O)ccc2O1 [CBK006095],96.2%
12,O=C(Nc1ccc(C(F)(F)F)cc1)C1CCCS1 (stereo not drawn) [CBK006142],92.5%
13,S=C(Nc1ccccc1)N1CCCCC1CN1CCCCC1 (stereo not drawn) [CBK006196],112%
14,COC(=O)c1sc(-c2ccsc2)cc1N [CBK006256],91.8%
15,COCCCNC(=S)N/N=C/c1ccco1 [CBK006272],104%
16,CSCC(O)Cn1nc(O)cc(C)c1=O (stereo not drawn) [CBK006293],105%
17,CSc1cc(-c2cccs2)[nH]c(=O)c1C#N [CBK006350],79.7%
18,CSc1c(C#N)c(-c2cc(C(C)(C)C)on2)nn1C [CBK006360],96.4%
19,COc1cc(C(F)(F)F)c(-c2ncn[nH]2)cn1 [CBK006362],101%
20,O=C(Cc1nn[nH]n1)Nc1ccc(F)c(Cl)c1 [CBK006384],95.4%
21,CCCc1cc(=O)[nH]c(SCc2noc(-c3snnc3C)n2)n1 [CBK006474],87.4%
22,Fc1cccc(Cl)c1CN1CNC(=S)NC1 [CBK006480],88.7%

# Same assay, conditions: human, hela cells, % viability, bulk resorufin, single well
row,SMILES,"viability at 28.5 h, 10 µM"
1,C[C@@H]1[C@H]2Cc3ccc(O)cc3[C@]1(C)CCN2Cc1ccoc1 [CBK005262G],103%
